The test deals with T1, Δ^5 -lipoxygenase from rat basophilic leukemia (RBL-1) cells (Rattus norvegicus, UniProt P12527).
T1 construct: endogenous in cells; host or cells: RBL-1 rat basophilic leukemia cells (ATCC CRL 1378); 113,000×g supernatant (cytosolic fraction)
T1 sequence (P12527 1-673): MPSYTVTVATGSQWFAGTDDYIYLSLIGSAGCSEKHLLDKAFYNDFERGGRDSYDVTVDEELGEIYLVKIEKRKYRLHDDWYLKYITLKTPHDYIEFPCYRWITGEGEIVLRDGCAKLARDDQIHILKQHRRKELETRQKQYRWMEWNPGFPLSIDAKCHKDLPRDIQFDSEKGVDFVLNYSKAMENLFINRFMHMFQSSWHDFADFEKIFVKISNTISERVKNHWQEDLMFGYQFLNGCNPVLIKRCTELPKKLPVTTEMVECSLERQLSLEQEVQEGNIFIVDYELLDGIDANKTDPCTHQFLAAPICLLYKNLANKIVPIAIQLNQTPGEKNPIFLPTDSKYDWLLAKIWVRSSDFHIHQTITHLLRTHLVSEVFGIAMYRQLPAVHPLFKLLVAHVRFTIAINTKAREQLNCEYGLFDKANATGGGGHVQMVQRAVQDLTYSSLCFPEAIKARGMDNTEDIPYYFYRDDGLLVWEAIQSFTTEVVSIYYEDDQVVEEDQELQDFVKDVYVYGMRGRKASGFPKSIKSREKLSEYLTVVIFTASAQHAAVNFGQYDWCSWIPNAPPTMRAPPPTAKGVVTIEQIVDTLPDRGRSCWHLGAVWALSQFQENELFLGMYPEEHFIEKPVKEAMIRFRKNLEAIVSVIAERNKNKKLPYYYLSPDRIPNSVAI
The test can be described thus: In vitro test for Δ^5 -lipoxygenase inhibitors (5-LO), RBL-1 cell enzyme, 5-HETE radioimmunoassay. The conditions noted are these: RBL-1 5-LO; 10 min preincubation; 8.25 μM arachidonic acid, 10 min at 37° C.; 5-HETE formation; read-out: 5-LO IC-50. The class given is biochemical. In outline: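 Cytosolic (113,000×g supernatant) 5-LO from RBL-1 cells was preincubated with compound 10 min at 30° C, then reacted 10 min at 37° C with 8.25 μM arachidonic acid in Tris-HCl pH 7.2 with glutathione, indomethacin, CaCl2 and ATP. The reaction was stopped with citric acid (pH 3.5), and 5-HETE formed was quantified by radioimmunoassay.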

For the molecule `Cc1c(C)c2c(c(C)c1O)CCC(C)(C#Cc1ccc(-c3cccnc3)cc1)O2` (racemic) [Example 24, rac-3,4-Dihydro-2,5,7,8-tetramethyl-2-{[4-(3-pyridinyl)-phenyl]ethynyl}-2H-1-benzopyran-6-ol], the IC50 amounted to 160 nM.

On to `Cc1c(C)c2c(c(C)c1O)CCC(C)(C#Cc1cccs1)O2` (racemic) [Example 4, rac-3,4-Dihydro-2,5,7,8-tetramethyl-2-[(2-thienyl)ethynyl]-2H-1-benzopyran-6-ol], for which the IC50 turned out to be 23 nM.

For `Cc1c(C)c2c(c(C)c1O)CCC(C)(C#Cc1ccc3c(c1)N(C)C(=O)CO3)O2` (stereo not shown) [Example 48], the IC50 was 32 nM.

As for `COC(=O)c1cc(C#CC2(C)CCc3c(C)c(O)c(C)c(C)c3O2)ccc1O` (racemic) [Example 23, rac-5-(3,4-Dihydro-6-hydroxy-2,5,7,8-tetramethyl-2H-1-benzopyran-2-yl)ethynyl]-2-hydroxybenzoic acid methyl ester], the IC50 was 160 nM. Consider `COC(=O)c1cc(CCC2(C)CCc3c(C)c(O)c(C)c(C)c3O2)ccc1O` (racemic) [Example 63, rac-5-[2-(3,4-Dihydro-6-hydroxy-2,5,7,8-tetramethyl-2H-1-benzopyran-2-yl)ethyl]-2-hydroxybenzoic acid methyl ester], for which the IC50 was 80 nM. Next, `COc1cccc(CCC2(C)CCc3c(C)c(O)c(C)c(C)c3O2)c1` (racemic) [Example 62, rac-3,4-Dihydro-2-[2-(3-methoxyphenyl)ethyl]-2,5,7,8-tetramethyl-2H-1-benzopyran-6-ol]: 120 nM; `Cc1c(C)c2c(c(C)c1O)CCC(C)(C#Cc1cccnc1)O2` (racemic) [Example 14, rac-3,4-Dihydro-2,5,7,8-tetramethyl-2-[(3-pyridinyl)ethynyl]-2H-1-benzopyran-6-ol]: 40 nM. As for `COc1cc(CO)cc(C#CC2(C)CCc3c(C)c(O)c(C)c(C)c3O2)c1O` (racemic) [Example 29, rac-3-[(3,4-Dihydro-6-hydroxy-2,5,7,8-tetramethyl-2H-1-benzopyran-2-yl)ethynyl]-4-hydroxy-5-methoxybenzenemethanol], the IC50 was determined as 130 nM. For `Cc1c(C)c2c(c(C)c1O)CCC(C)(CCc1ccc(-c3cccnc3)cc1)O2` (racemic) [Example 64, rac-3,4-Dihydro-2,5,7,8-tetramethyl-2-{2-[4-(3-pyridinyl)-phenyl]ethyl}-2H-1-benzopyran-6-ol], the IC50 stood at 46 nM. For `Cc1c(C)c2c(c(C)c1O)CCC(C)(C#Cc1ccccc1O)O2` (racemic) [Example 50 (2-HO-phenyl), rac-3,4-Dihydro-2-[(2-hydroxyphenyl)ethynyl]-2,5,7,8-tetramethyl-2H-1-benzopyran-6-ol], the IC50 was 6 nM. On to `Cc1c(C)c2c(c(C)c1O)CCC(C)(c1cc3ccccc3o1)O2` (racemic) [Example 50 (CH; H, H, H), rac-2-(2-Benzofuranyl)-3,4-dihydro-2,5,7,8-tetramethyl-2H-1-benzopyran-6-ol], for which the IC50 stood at 12 nM. Next, `Cc1c(C)c2c(c(C)c1O)CCC(C)(C#Cc1cncc3ccccc13)O2` (racemic) [Example 34, rac-3,4-Dihydro-2-[(4-isoquinolinyl)ethynyl]-2,5,7,8-tetramethyl-2H-1-benzopyran-6-ol]: 1000 nM; `Cc1c(C)c2c(c(C)c1O)CCC(C)(C#Cc1cccc(C(F)(F)F)c1)O2` (racemic) [Example 35, rac-2-{[3-(Trifluoromethyl)phenyl]ethynyl-3,4-dihydro-2,5,7,8-tetramethyl-2H-1-benzopyran-6-ol]: 190 nM.

For the molecule `Cc1c(C)c2c(c(C)c1O)CCC(C)(c1cc3ncccc3o1)O2` (racemic) [Example 52, rac-3,4-Dihydro-2-(furo[3,2-b]pyridine-2-yl)-2,5,7,8-tetramethyl-2H-1-benzopyran-6-ol], the IC50 turned out to be 18 nM. With `COc1ccc(C#CC2(C)CCc3c(C)c(O)c(C)c(C)c3O2)cc1OC(C)=O` (racemic) [Example 20, rac-2-[(3-Acetyloxy-4-methoxyphenyl)ethynyl]-3.4-dihydro-2,5,7,8-tetramethyl-2H-1-benzopyran-6-ol], the IC50 is 24 nM.

For `CCCc1c(O)c(C(C)=O)cc2cc(C3(C)CCc4c(C)c(O)c(C)c(C)c4O3)oc12` (racemic) [Example 53, rac-1-2-(3,4-Dihydro-6-hydroxy-2,5,7,8-tetramethyl-2H-1-benzopyran-2-yl)-6-hydroxy-7-propylbenzofuran-5-yl]ethanone], the IC50 was found to be 17 nM. Regarding `COc1cc(C=NO)cc(C#CC2(C)CCc3c(C)c(O)c(C)c(C)c3O2)c1O` (racemic) [Example 30, rac-3-[(3,4-Dihydro-6-hydroxy-2,5,7,8-tetramethyl-2H-1-benzopyran-2yl)ethynyl]-4-hydroxy-5-methoxybenzaldehydeoxime], the IC50 stood at 160 nM. Next, `Cc1c(C)c2c(c(C)c1O)CCC(C)(C#Cc1cccc3ccccc13)O2` (racemic) [Example 39, rac-3,4-Dihydro-2,5,7,8-tetramethyl-2-(1-naphthyl)ethynyl-2H-1-benzopyran-6-ol]: 500 nM; `Cc1c(C)c2c(c(C)c1O)CCC(C)(CCc1ccc(O)c(O)c1)O2` (racemic) [Example 61, rac-4-[2-(3,4-Dihydro-6-hydroxy-2,5,7,8-tetramethyl-2H-1-benzopyran-2-yl)ethyl]-1,2-benzenediol]: 15 nM.

Values taken from patent publication US5015661A, “Chromanes and their pharmaceutical compositions and methods” (Hoffmann-La Roche Inc., priority 1989, dated 1991).
